Reference: patent publication US20240239863A1, “GIP RECEPTOR AGONIST AND USE THEREOF” (HANGZHOU ZHONGMEIHUADONG PHARMACEUTICAL CO., LTD., priority 2022, published 2024)
Starred links: 1 amine or outer side, 2 acyl side, 3 side chain; linkers in the order of their positions; H or OH if unused. Non-standard residues stand in square brackets, D forms with d. Residues, ends and D or L forms follow the SMILES beside them. Groups on a side chain read outwards from the residue. *: point of attachment. d(γGlu) = O=C(O)[C@@H](CCC(=O)[*:2])N[*:1]; C18 diacid = O=C(O)CCCCCCCCCCCCCCCCC(=O)*; AEEA = NCCOCCOCC(=O)O; Aib = CC(C)(N)C(=O)O

biological target: hGLP-1R (Homo sapiens, UniProt P43220); test: Cell agonistic activity at GLP-1 receptor (Example 7); type: cell-based; conditions: not given
Sequence (P43220 24-463): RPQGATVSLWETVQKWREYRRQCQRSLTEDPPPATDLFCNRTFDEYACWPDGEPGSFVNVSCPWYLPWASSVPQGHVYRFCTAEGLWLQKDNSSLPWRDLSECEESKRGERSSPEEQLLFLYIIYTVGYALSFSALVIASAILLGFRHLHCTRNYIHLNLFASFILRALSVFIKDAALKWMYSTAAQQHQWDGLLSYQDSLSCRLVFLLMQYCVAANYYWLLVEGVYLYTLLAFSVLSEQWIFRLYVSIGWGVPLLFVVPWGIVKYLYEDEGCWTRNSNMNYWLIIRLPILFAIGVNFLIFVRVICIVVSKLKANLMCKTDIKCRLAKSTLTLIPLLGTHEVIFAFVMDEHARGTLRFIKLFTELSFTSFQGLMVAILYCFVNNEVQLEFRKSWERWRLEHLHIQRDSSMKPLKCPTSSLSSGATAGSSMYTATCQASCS

| SMILES | EC50 [nM] |
| --- | --- |
| CC[C@H](C)[C@H](NC(=O)[C@H](CO)NC(=O)[C@H](Cc1ccc(O)cc1)NC(=O)[C@H](CC(=O)O)NC(=O)[C@H](CO)NC(=O)[C@@H](NC(=O)[C@H](Cc1ccccc1)NC(=O)[C@@H](NC(=O)CNC(=O)[C@H](CCC(=O)O)NC(=O)C(C)(C)NC(=O)[C@@H](N)Cc1ccc(O)cc1)[C@@H](C)O)[C@@H](C)CC)C(=O)N[C@@H](C)C(=O)N[C@@H](CC(C)C)C(=O)N[C@@H](CC(=O)O)C(=O)N[C@@H](CCCNC(=N)N)C(=O)N[C@@H](CC(C)C)C(=O)N[C@@H](Cc1c[nH]cn1)C(=O)N[C@@H](CCC(N)=O)C(=O)N[C@@H](CCC(=O)O)C(=O)N[C@@H](CC(=O)O)C(=O)N[C@@H](Cc1ccccc1)C(=O)N[C@H](C(=O)N[C@@H](CC(N)=O)C(=O)N[C@@H](Cc1c[nH]c2ccccc12)C(=O)N[C@@H](CC(C)C)C(=O)N[C@@H](CC(C)C)C(=O)N[C@@H](C)C(=O)N[C@@H](CCC(N)=O)C(=O)N[C@@H](CCCCN)C(=O)NCC(=O)O)C(C)C [Sequence 16] (H-Y[Aib]EGTFISDYSIALDRLHQEDFVNWLLAQKG-OH; N-terminus and C-terminus assumed) | > 0.1 |
| CC[C@H](C)[C@H](NC(=O)[C@H](CO)NC(=O)[C@H](Cc1ccc(O)cc1)NC(=O)[C@H](CC(=O)O)NC(=O)[C@H](CO)NC(=O)[C@@H](NC(=O)[C@H](Cc1ccccc1)NC(=O)[C@@H](NC(=O)CNC(=O)[C@H](CCC(=O)O)NC(=O)C(C)(C)NC(=O)[C@@H](N)Cc1ccc(O)cc1)[C@@H](C)O)[C@@H](C)CC)C(=O)N[C@@H](C)C(=O)N[C@@H](CC(C)C)C(=O)N[C@@H](CC(=O)O)C(=O)N[C@@H](CCC(=O)O)C(=O)N[C@H](C(=O)N[C@@H](Cc1c[nH]cn1)C(=O)N[C@@H](CCC(N)=O)C(=O)N[C@@H](CCCCN)C(=O)N[C@@H](CC(=O)O)C(=O)N[C@@H](Cc1ccccc1)C(=O)N[C@H](C(=O)N[C@@H](CC(N)=O)C(=O)N[C@@H](Cc1c[nH]c2ccccc12)C(=O)N[C@@H](CC(C)C)C(=O)N[C@@H](CC(C)C)C(=O)N[C@@H](C)C(=O)N[C@@H](CCC(N)=O)C(=O)N[C@@H](CCCNC(=N)N)C(=O)NCC(=O)O)C(C)C)[C@@H](C)CC [Sequence 5] (H-Y[Aib]EGTFISDYSIALDEIHQKDFVNWLLAQRG-OH; N-terminus and C-terminus assumed) | > 0.1 |
| CC[C@H](C)[C@H](NC(=O)[C@H](CO)NC(=O)[C@H](Cc1ccc(O)cc1)NC(=O)[C@H](CC(=O)O)NC(=O)[C@H](CO)NC(=O)[C@@H](NC(=O)[C@H](Cc1ccccc1)NC(=O)[C@@H](NC(=O)CNC(=O)[C@H](CCC(=O)O)NC(=O)C(C)(C)NC(=O)[C@@H](N)Cc1ccc(O)cc1)[C@@H](C)O)[C@@H](C)CC)C(=O)N[C@@H](C)C(=O)N[C@@H](CC(C)C)C(=O)N[C@@H](CC(=O)O)C(=O)N[C@@H](CCCNC(=N)N)C(=O)N[C@H](C(=O)N[C@@H](Cc1c[nH]cn1)C(=O)N[C@@H](CCC(N)=O)C(=O)N[C@@H](CCC(N)=O)C(=O)N[C@@H](CC(=O)O)C(=O)N[C@@H](Cc1ccccc1)C(=O)N[C@H](C(=O)N[C@@H](CCCCN)C(=O)N[C@@H](Cc1c[nH]c2ccccc12)C(=O)N[C@@H](CC(C)C)C(=O)N[C@@H](CC(C)C)C(=O)N[C@@H](C)C(=O)N[C@@H](CCC(N)=O)C(=O)N[C@@H](CCCNC(=N)N)C(=O)NCC(=O)O)C(C)C)[C@@H](C)CC [Sequence 13] (H-Y[Aib]EGTFISDYSIALDRIHQQDFVKWLLAQRG-OH; N-terminus and C-terminus assumed) | > 0.1 |
| CC[C@H](C)[C@H](NC(=O)[C@H](CO)NC(=O)[C@H](Cc1ccc(O)cc1)NC(=O)[C@H](CC(=O)O)NC(=O)[C@H](CO)NC(=O)[C@@H](NC(=O)[C@H](Cc1ccccc1)NC(=O)[C@@H](NC(=O)CNC(=O)[C@H](CCC(=O)O)NC(=O)C(C)(C)NC(=O)[C@@H](N)Cc1ccc(O)cc1)[C@@H](C)O)[C@@H](C)CC)C(=O)N[C@@H](C)C(=O)N[C@@H](CC(C)C)C(=O)N[C@@H](CC(=O)O)C(=O)N[C@@H](CCCNC(=N)N)C(=O)N[C@@H](CC(C)C)C(=O)N[C@@H](Cc1c[nH]cn1)C(=O)N[C@@H](CCC(N)=O)C(=O)N[C@@H](CCC(N)=O)C(=O)N[C@@H](CC(=O)O)C(=O)N[C@@H](Cc1ccccc1)C(=O)N[C@H](C(=O)N[C@@H](CC(N)=O)C(=O)N[C@@H](Cc1c[nH]c2ccccc12)C(=O)N[C@@H](CC(C)C)C(=O)N[C@@H](CC(C)C)C(=O)N[C@@H](C)C(=O)N[C@@H](CCC(N)=O)C(=O)N[C@@H](CCCCN)C(=O)NCC(=O)O)C(C)C [Sequence 18] (H-Y[Aib]EGTFISDYSIALDRLHQQDFVNWLLAQKG-OH; N-terminus and C-terminus assumed) | > 0.1 |
| CC[C@H](C)[C@H](NC(=O)[C@H](CO)NC(=O)[C@H](Cc1ccc(O)cc1)NC(=O)[C@H](CC(=O)O)NC(=O)[C@H](CO)NC(=O)[C@@H](NC(=O)[C@H](Cc1ccccc1)NC(=O)[C@@H](NC(=O)CNC(=O)[C@H](CCC(=O)O)NC(=O)C(C)(C)NC(=O)[C@@H](N)Cc1ccc(O)cc1)[C@@H](C)O)[C@@H](C)CC)C(=O)N[C@@H](C)C(=O)N[C@@H](CC(C)C)C(=O)N[C@@H](CC(=O)O)C(=O)N[C@@H](CCCNC(=N)N)C(=O)N[C@H](C(=O)N[C@@H](Cc1c[nH]cn1)C(=O)N[C@@H](CCC(N)=O)C(=O)N[C@@H](CCC(=O)O)C(=O)N[C@@H](CC(=O)O)C(=O)N[C@@H](Cc1ccccc1)C(=O)N[C@H](C(=O)N[C@@H](CCCCN)C(=O)N[C@@H](Cc1c[nH]c2ccccc12)C(=O)N[C@@H](CC(C)C)C(=O)N[C@@H](CC(C)C)C(=O)N[C@@H](C)C(=O)N[C@@H](CCC(N)=O)C(=O)N[C@@H](CCCNC(=N)N)C(=O)NCC(=O)O)C(C)C)[C@@H](C)CC [Sequence 11] (H-Y[Aib]EGTFISDYSIALDRIHQEDFVKWLLAQRG-OH; N-terminus and C-terminus assumed) | > 0.1 |
| CC[C@H](C)[C@H](NC(=O)[C@H](CCCCN)NC(=O)[C@H](CC(=O)O)NC(=O)[C@H](CC(C)C)NC(=O)C(C)(C)NC(=O)[C@@H](NC(=O)[C@H](CO)NC(=O)[C@H](Cc1ccc(O)cc1)NC(=O)[C@H](CC(=O)O)NC(=O)[C@H](CO)NC(=O)[C@@H](NC(=O)[C@H](Cc1ccccc1)NC(=O)[C@@H](NC(=O)CNC(=O)[C@H](CCC(=O)O)NC(=O)C(C)(C)NC(=O)[C@@H](N)Cc1ccc(O)cc1)[C@@H](C)O)[C@@H](C)CC)[C@@H](C)CC)C(=O)N[C@@H](Cc1c[nH]cn1)C(=O)N[C@@H](CCC(N)=O)C(=O)N[C@@H](CCC(=O)O)C(=O)N[C@@H](CC(=O)O)C(=O)N[C@@H](Cc1ccccc1)C(=O)N[C@H](C(=O)N[C@@H](CCCCN)C(=O)N[C@@H](Cc1c[nH]c2ccccc12)C(=O)N[C@@H](CC(C)C)C(=O)N[C@@H](CC(C)C)C(=O)N[C@@H](C)C(=O)N[C@@H](CCC(N)=O)C(=O)N[C@@H](CCCCN)C(=O)NCC(=O)O)C(C)C [Sequence 1] (H-Y[Aib]EGTFISDYSI[Aib]LDKIHQEDFVKWLLAQKG-OH; N-terminus and C-terminus assumed) | > 0.1 |
| CC[C@H](C)[C@H](NC(=O)[C@H](CCC(=O)O)NC(=O)[C@H](CC(=O)O)NC(=O)[C@H](CC(C)C)NC(=O)C(C)(C)NC(=O)[C@@H](NC(=O)[C@H](CO)NC(=O)[C@H](Cc1ccc(O)cc1)NC(=O)[C@H](CC(=O)O)NC(=O)[C@H](CO)NC(=O)[C@@H](NC(=O)[C@H](Cc1ccccc1)NC(=O)[C@@H](NC(=O)CNC(=O)[C@H](CCC(=O)O)NC(=O)C(C)(C)NC(=O)[C@@H](N)Cc1ccc(O)cc1)[C@@H](C)O)[C@@H](C)CC)[C@@H](C)CC)C(=O)N[C@@H](Cc1c[nH]cn1)C(=O)N[C@@H](CCC(N)=O)C(=O)N[C@@H](CCCCN)C(=O)N[C@@H](CC(=O)O)C(=O)N[C@@H](Cc1ccccc1)C(=O)N[C@H](C(=O)N[C@@H](CCCCN)C(=O)N[C@@H](Cc1c[nH]c2ccccc12)C(=O)N[C@@H](CC(C)C)C(=O)N[C@@H](CC(C)C)C(=O)N[C@@H](C)C(=O)N[C@@H](CCC(N)=O)C(=O)N[C@@H](CCCCN)C(=O)NCC(=O)O)C(C)C [Sequence 2] (H-Y[Aib]EGTFISDYSI[Aib]LDEIHQKDFVKWLLAQKG-OH; N-terminus and C-terminus assumed) | > 0.1 |
| CC[C@H](C)[C@H](NC(=O)[C@H](CO)NC(=O)[C@H](Cc1ccc(O)cc1)NC(=O)[C@H](CC(=O)O)NC(=O)[C@H](CO)NC(=O)[C@@H](NC(=O)[C@H](Cc1ccccc1)NC(=O)[C@@H](NC(=O)CNC(=O)[C@H](CCC(=O)O)NC(=O)C(C)(C)NC(=O)[C@@H](N)Cc1ccc(O)cc1)[C@@H](C)O)[C@@H](C)CC)C(=O)N[C@@H](C)C(=O)N[C@@H](CC(C)C)C(=O)N[C@@H](CC(=O)O)C(=O)N[C@@H](CCCNC(=N)N)C(=O)N[C@@H](CC(C)C)C(=O)N[C@@H](Cc1c[nH]cn1)C(=O)N[C@@H](CCC(N)=O)C(=O)N[C@@H](CCC(N)=O)C(=O)N[C@@H](CC(=O)O)C(=O)N[C@@H](Cc1ccccc1)C(=O)N[C@H](C(=O)N[C@@H](CCCCN)C(=O)N[C@@H](Cc1c[nH]c2ccccc12)C(=O)N[C@@H](CC(C)C)C(=O)N[C@@H](CC(C)C)C(=O)N[C@@H](C)C(=O)N[C@@H](CCC(N)=O)C(=O)N[C@@H](CCCNC(=N)N)C(=O)NCC(=O)O)C(C)C [Sequence 17] (H-Y[Aib]EGTFISDYSIALDRLHQQDFVKWLLAQRG-OH; N-terminus and C-terminus assumed) | > 0.1 |

same assay, conditions: read-out: hGLP-1R EC50

| SMILES | EC50 [nM] |
| --- | --- |
| CC[C@H](C)[C@H](NC(=O)[C@H](CO)NC(=O)[C@H](Cc1ccc(O)cc1)NC(=O)[C@H](CC(=O)O)NC(=O)[C@H](CO)NC(=O)[C@@H](NC(=O)[C@H](Cc1ccccc1)NC(=O)[C@@H](NC(=O)CNC(=O)[C@H](CCC(=O)O)NC(=O)C(C)(C)NC(=O)[C@@H](N)Cc1ccc(O)cc1)[C@@H](C)O)[C@@H](C)CC)C(=O)N[C@@H](C)C(=O)N[C@@H](CC(C)C)C(=O)N[C@@H](CC(=O)O)C(=O)N[C@@H](CCCCNC(=O)COCCOCCNC(=O)COCCOCCNC(=O)CC[C@@H](NC(=O)CCCCCCCCCCCCCCCCC(=O)O)C(=O)O)C(=O)N[C@@H](CC(C)C)C(=O)N[C@@H](Cc1c[nH]cn1)C(=O)N[C@@H](CCC(N)=O)C(=O)N[C@@H](CCC(=O)O)C(=O)N[C@@H](CC(=O)O)C(=O)N[C@@H](Cc1ccccc1)C(=O)N[C@H](C(=O)N[C@@H](CC(N)=O)C(=O)N[C@@H](Cc1c[nH]c2ccccc12)C(=O)N[C@@H](CC(C)C)C(=O)N[C@@H](CC(C)C)C(=O)N[C@@H](C)C(=O)N[C@@H](CCC(N)=O)C(=O)N[C@@H](CCCNC(=N)N)C(=O)NCC(=O)O)C(C)C [Peptide 10, N-{ε-16}-18-{[(23R)-23-carboxyl-2,11,20-trioxo-10,19-diaza-4,7,13,16-tetraoxatricosyl-23-yl]amino}-18-oxooctadecanoic acid acetyl-[Aib2, L14, L17, E20, R30]-hGIP(1-31)] (H-Y[Aib]EGTFISDYSIALDK([AEEA-AEEA-d(γGlu)-C18 diacid])LHQEDFVNWLLAQRG-OH) | > 0.1 |
